From ChEMBL document CHEMBL3044921, “Synthesis, characterization, and SAR studies of new (1H-indol-3-yl)alkyl-3-(1H-indol-3-yl)propanamide derivatives as possible antimicrobial and antitubercular agents” (2013)
In brackets after ≈: the same amount, converted by molar mass.

Assays:
[1] = test system: Trichophyton mentagrophytes; assay: Antifungal activity against Trichophyton mentagrophytes assessed as growth inhibition after 3 to 4 days by serial plate dilution method; format: functional
[2] = test system: Mycobacterium tuberculosis; assay: Antitubercular activity against Mycobacterium tuberculosis H37Rv ATCC 27294 assessed as growth inhibition at 1 to 100 ug/mL after 7 days by resazurin reduction test; format: functional; conditions: for MIC: Mycobacterium tuberculosis, H37Rv ATCC 27294, 168 h
Aspergillus flavus [3] = assay: Antifungal activity against Aspergillus flavus NCIM 524 assessed as growth inhibition at […] to […] ug/ml after 3 to 4 days by agar well diffusion method; format: functional
[4] = test system: Mycolicibacterium smegmatis; assay: Antitubercular activity against Mycobacterium smegmatis ATCC 19420 assessed as growth inhibition at 0.3125 to 5 ug/mL after 7 days by resazurin reduction test; format: functional; conditions: ATCC 19420, 168 h
[5] = test system: Mycolicibacterium fortuitum; assay: Antitubercular activity against Mycobacterium fortuitum ATCC 19542 assessed as growth inhibition at 1 to 100 ug/mL after 7 days by resazurin reduction test; format: functional; conditions: ATCC 19542, 168 h
Streptococcus pyogenes [6] = format: functional
Description: Antibacterial activity against Streptococcus pyogenes assessed as growth inhibition at 1.56 to 25 ug/ml after 3 to 4 days by agar well diffusion method

[7] = test system: Mycobacterium tuberculosis; assay: Antitubercular activity against Mycobacterium tuberculosis H37Rv ATCC 27294 assessed as growth inhibition at 0.3125 to 5 ug/mL after 7 days by resazurin reduction test; format: functional; conditions: H37Rv ATCC 27294, 168 h
Talaromyces marneffei [8] = assay: Antifungal activity against Talaromyces marneffei assessed as growth inhibition after 3 to 4 days by serial plate dilution method; format: functional
Escherichia coli [9] = assay: Antibacterial activity against Escherichia coli […] assessed as growth inhibition after 16 to 18 hr by serial plate dilution method; format: functional
Candida albicans [10] = assay: Antifungal activity against Candida albicans assessed as growth inhibition after 3 to 4 days by serial plate dilution method; format: functional
Aspergillus fumigatus [11] = assay: Antifungal activity against Aspergillus fumigatus NCIM 902 assessed as growth inhibition at […] to […] ug/ml after 3 to 4 days by agar well diffusion method; format: functional
Staphylococcus aureus [12] = assay: Antibacterial activity against Staphylococcus aureus ATCC 25923 assessed as growth inhibition after 16 to 18 hr by serial plate dilution method; format: functional
Klebsiella pneumoniae [13] = format: functional
Description: Antibacterial activity against Klebsiella pneumoniae assessed as growth inhibition at 1.56 to 25 ug/ml after 3 to 4 days by agar well diffusion method

Talaromyces marneffei [14] = assay: Antifungal activity against Talaromyces marneffei assessed as growth inhibition at […] to […] ug/ml after 3 to 4 days by agar well diffusion method; format: functional
Aspergillus fumigatus [15] = assay: Antifungal activity against Aspergillus fumigatus NCIM 902 assessed as growth inhibition after 3 to 4 days by serial plate dilution method; format: functional
[16] = test system: Trichophyton mentagrophytes; assay: Antifungal activity against Trichophyton mentagrophytes assessed as growth inhibition at […] to […] ug/ml after 3 to 4 days by agar well diffusion method; format: functional
Pseudomonas aeruginosa [17] = format: functional, ATCC 27853
Description: Antibacterial activity against Pseudomonas aeruginosa ATCC 27853 assessed as growth inhibition at 1.56 to 25 ug/ml after 3 to 4 days by agar well diffusion method

Escherichia coli [18] = format: functional, ATCC 24922
Description: Antibacterial activity against Escherichia coli ATCC 24922 assessed as growth inhibition at 1.56 to 25 ug/ml after 3 to 4 days by agar well diffusion method

Streptococcus pyogenes [19] = assay: Antibacterial activity against Streptococcus pyogenes assessed as growth inhibition after 16 to 18 hr by serial plate dilution method; format: functional
[20] = test system: Mycolicibacterium smegmatis; assay: Antitubercular activity against Mycobacterium smegmatis ATCC 19420 assessed as growth inhibition at 1 to 100 ug/mL after 7 days by resazurin reduction test; format: functional; conditions: ATCC 19420, 168 h
Klebsiella pneumoniae [21] = assay: Antibacterial activity against Klebsiella pneumoniae assessed as growth inhibition after 16 to 18 hr by serial plate dilution method; format: functional
Aspergillus flavus [22] = assay: Antifungal activity against Aspergillus flavus NCIM 524 assessed as growth inhibition after 3 to 4 days by serial plate dilution method; format: functional
Candida albicans [23] = assay: Antifungal activity against Candida albicans assessed as growth inhibition at […] to […] ug/ml after 3 to 4 days by agar well diffusion method; format: functional
Pseudomonas aeruginosa [24] = assay: Antibacterial activity against Pseudomonas aeruginosa ATCC 27853 assessed as growth inhibition after 16 to 18 hr by serial plate dilution method; format: functional
Staphylococcus aureus [25] = format: functional, ATCC 25923
Description: Antibacterial activity against Staphylococcus aureus ATCC 25923 assessed as growth inhibition at 1.56 to 25 ug/ml after 3 to 4 days by agar well diffusion method

[26] = test system: Mycolicibacterium fortuitum; assay: Antitubercular activity against Mycobacterium fortuitum ATCC 19542 assessed as growth inhibition at 0.3125 to 5 ug/mL after 7 days by resazurin reduction test; format: functional; conditions: ATCC 19542, 168 h

SMILES	MIC [1] [µg/mL]	growth inhibition (GI) [2] [%]	MIC [2] [µg/mL]	diameter of the inhibition zone (DIZ) (Aspergillus flavus [3]) [mm]	MIC [4] [µg/mL]	MIC [5] [µg/mL]	diameter of the inhibition zone (DIZ) (Streptococcus pyogenes [6]) [mm]	MIC [7] [µg/mL]	MIC (Talaromyces marneffei [8]) [µg/mL]	MIC (Escherichia coli [9]) [µg/mL]	MIC (Candida albicans [10]) [µg/mL]	diameter of the inhibition zone (DIZ) (Aspergillus fumigatus [11]) [mm]	MIC (Staphylococcus aureus [12]) [µg/mL]	diameter of the inhibition zone (DIZ) (Klebsiella pneumoniae [13]) [mm]	diameter of the inhibition zone (DIZ) (Talaromyces marneffei [14]) [mm]	MIC (Aspergillus fumigatus [15]) [µg/mL]	diameter of the inhibition zone (DIZ) [16] [mm]	diameter of the inhibition zone (DIZ) (Pseudomonas aeruginosa [17]) [mm]	diameter of the inhibition zone (DIZ) (Escherichia coli [18]) [mm]	MIC [20] [µg/mL]	also measured
Cn1cc(CCCNC(=O)CCc2cn(C)c3ccc(Cl)cc23)c2cc(Cl)ccc21	12.5 (≈ 28.3 µM)	<90	10 (≈ 22.6 µM)	11	10 (≈ 22.6 µM)	> 100	<10	5 (≈ 11.3 µM)	25 (≈ 56.5 µM)	25 (≈ 56.5 µM)	25 (≈ 56.5 µM)	11	12.5 (≈ 28.3 µM)	<10	<10	12.5 (≈ 28.3 µM)	11	<10	<10	10 (≈ 22.6 µM)	MIC (Streptococcus pyogenes [19]): 25 µg/mL (≈ 56.5 µM); MIC (Klebsiella pneumoniae [21]): 25 µg/mL (≈ 56.5 µM); MIC (Aspergillus flavus [22]): 12.5 µg/mL (≈ 28.3 µM); diameter of the inhibition zone (DIZ) (Candida albicans [23]): <10 mm; MIC (Pseudomonas aeruginosa [24]): 25 µg/mL (≈ 56.5 µM); diameter of the inhibition zone (DIZ) (Staphylococcus aureus [25]): 11 mm
Cc1c(CCCNC(=O)CCc2c[nH]c3ccc(Cl)cc23)c2cc(OC(F)(F)F)ccc2n1C	25 (≈ 50.8 µM)	90	10 (≈ 20.3 µM)	16		10 (≈ 20.3 µM)	16	10 (≈ 20.3 µM)	6.25 (≈ 12.7 µM)	12.5 (≈ 25.4 µM)	12.5 (≈ 25.4 µM)	<10	12.5 (≈ 25.4 µM)	11	16	25 (≈ 50.8 µM)	<10	<10	11	> 100	MIC (Streptococcus pyogenes [19]): 6.25 µg/mL (≈ 12.7 µM); MIC (Klebsiella pneumoniae [21]): 12.5 µg/mL (≈ 25.4 µM); MIC [26]: 10 µg/mL (≈ 20.3 µM); MIC (Aspergillus flavus [22]): 6.25 µg/mL (≈ 12.7 µM); diameter of the inhibition zone (DIZ) (Candida albicans [23]): 11 mm; MIC (Pseudomonas aeruginosa [24]): 25 µg/mL (≈ 50.8 µM); diameter of the inhibition zone (DIZ) (Staphylococcus aureus [25]): 11 mm
Cn1cc(CCC(=O)NCCCc2c[nH]c3ccc(Cl)cc23)c2cc(Cl)ccc21	12.5 (≈ 29.2 µM)	<90	10 (≈ 23.3 µM)	<10	2.5 (≈ 5.84 µM)	> 100	11	2.5 (≈ 5.84 µM)	25 (≈ 58.4 µM)	6.25 (≈ 14.6 µM)	6.25 (≈ 14.6 µM)	<10	6.25 (≈ 14.6 µM)	16	<10	25 (≈ 58.4 µM)	11	16	16	10 (≈ 23.3 µM)	MIC (Streptococcus pyogenes [19]): 12.5 µg/mL (≈ 29.2 µM); MIC (Klebsiella pneumoniae [21]): 6.25 µg/mL (≈ 14.6 µM); MIC (Aspergillus flavus [22]): 25 µg/mL (≈ 58.4 µM); diameter of the inhibition zone (DIZ) (Candida albicans [23]): 16 mm; MIC (Pseudomonas aeruginosa [24]): 6.25 µg/mL (≈ 14.6 µM); diameter of the inhibition zone (DIZ) (Staphylococcus aureus [25]): 16 mm
Cn1cc(CCCNC(=O)CCc2c[nH]c3ccc(Cl)cc23)c2cc(OC(F)(F)F)ccc21	25 (≈ 52.3 µM)	95	1 (≈ 2.09 µM)	<10	10 (≈ 20.9 µM)	10 (≈ 20.9 µM)	16	0.625 (≈ 1.31 µM)	12.5 (≈ 26.2 µM)	6.25 (≈ 13.1 µM)	25 (≈ 52.3 µM)	<10	6.25 (≈ 13.1 µM)	16	11	25 (≈ 52.3 µM)	<10	16	16	10 (≈ 20.9 µM)	MIC (Streptococcus pyogenes [19]): 6.25 µg/mL (≈ 13.1 µM); MIC (Klebsiella pneumoniae [21]): 6.25 µg/mL (≈ 13.1 µM); MIC [26]: 10 µg/mL (≈ 20.9 µM); MIC (Aspergillus flavus [22]): 25 µg/mL (≈ 52.3 µM); diameter of the inhibition zone (DIZ) (Candida albicans [23]): <10 mm; MIC (Pseudomonas aeruginosa [24]): 6.25 µg/mL (≈ 13.1 µM); diameter of the inhibition zone (DIZ) (Staphylococcus aureus [25]): 16 mm
Cn1cc(CNC(=O)CCc2c[nH]c3ccc(Cl)cc23)c2cc(Cl)ccc21	6.25 (≈ 15.6 µM)	90	> 100	16		10 (≈ 25 µM)	16	1.25 (≈ 3.12 µM)	6.25 (≈ 15.6 µM)	12.5 (≈ 31.2 µM)	6.25 (≈ 15.6 µM)	16	12.5 (≈ 31.2 µM)	11	16	6.25 (≈ 15.6 µM)	16	<10	11	10 (≈ 25 µM)	MIC (Streptococcus pyogenes [19]): 6.25 µg/mL (≈ 15.6 µM); MIC (Klebsiella pneumoniae [21]): 12.5 µg/mL (≈ 31.2 µM); MIC [26]: 10 µg/mL (≈ 25 µM); MIC (Aspergillus flavus [22]): 6.25 µg/mL (≈ 15.6 µM); diameter of the inhibition zone (DIZ) (Candida albicans [23]): 16 mm; MIC (Pseudomonas aeruginosa [24]): 25 µg/mL (≈ 62.5 µM); diameter of the inhibition zone (DIZ) (Staphylococcus aureus [25]): 11 mm
NNC(=O)c1ccncc1 [ISONIAZID]		95	0.7 (≈ 5.1 µM)		50 (≈ 365 µM)	12.5 (≈ 91.1 µM)		0.7 (≈ 5.1 µM)												50 (≈ 365 µM)	MIC [26]: 12.5 µg/mL (≈ 91.1 µM)
CO[C@H]1/C=C/O[C@@]2(C)Oc3c(C)c(O)c4c(O)c(c(/C=N/N5CCN(C)CC5)c(O)c4c3C2=O)NC(=O)/C(C)=C\C=C\[C@H](C)[C@H](O)[C@@H](C)[C@@H](O)[C@@H](C)[C@H](OC(C)=O)[C@@H]1C [RIFAMPIN]		95	0.5 (≈ 0.608 µM)		1.5 (≈ 1.82 µM)	1.5 (≈ 1.82 µM)		0.5 (≈ 0.608 µM)												1.5 (≈ 1.82 µM)	MIC [26]: 1.5 µg/mL (≈ 1.82 µM)
